Assay results as given in patent publication US20240218019A1, “METHODS AND COMPOSITIONS COMPRISING MHC CLASS I PEPTIDES” (BOARD OF REGENTS, THE UNIVERSITY OF TEXAS SYSTEM, priority 2021, published 2024).
Entries after “also recorded” stand apart in the source; their conditions may differ.

Test system: healthy donor PBMCs
Assay: IFNγ ELISpot assay with peptide-stimulated healthy donor PBMCs
Assay type: cell-based, human
Procedure: FIG. 10A-D. In vitro validation of predicted neoAgs immunogenicity using ELISpot IFNy assay. A) Schematic of peptide pool, stimulation, and cell culture workflow for ELISpot assays. PBMCs were exposed with the individual peptides from the immunogenic pools in the presence of IL-7 for 3 d, followed by expansion of neoAg-specific T cells in the presence of IL-2. On day 13, expanded cells (10^5 cells per well) were plated onto 96-well ELISpot plate coated with an IFNγ antibody and re-stimulated with the respective peptide for 24 h. IFNy secreting cells were analyzed as spot-forming units (SFUs), and the inventors chose ≥15 SFU produced by peptide stimulated cells over DMSO control cells as an indicator of the peptide immunogenicity. B) Quantification of IFNγ-secreting cells (SFU) obtained from ELISpot assay of 12 neoAg-stimulated PBMCs. ConcA and DMSO served as positive and negative controls. […] C) Selection of 110 predicted MHC-I neoAgs from 3 different categories and percentage of immunogenicity in vitro validation. […] “Most Immunogenic” refers to neoAgs selected from the top 100 prediction list of Most Immunogenic MHC-I neoAgs. “Most recurrent” refers to neoAgs selected from the top 100 prediction list of Most Recurrent MHC-I neoAgs. “Others” refers neoAgs that were predicted to have low immunogenicity and no recurrency. A total of 44 MHC-II neoAgs from 2 different categories were tested. […] “Most Immunogenic” refers to neoAgs selected from the top 100 prediction list of Most Immunogenic MHC-II neoAgs. “Most recurrent” refers to neoAgs selected from the top 100 prediction list of Most Recurrent MHC-II neoAgs. D) pMHC-pentamer staining. Expanded Pan-T cells from the healthy human donor were isolated and stained with WDTC1 neoAg peptide/A*02:01 Pentameric complexes and PerCP-conjugated CD8 antibody followed by flow cytometry analysis. Pan T-cells from healthy human donor PBMC (HLA-A*02:01) were isolated using negative magnetic selection. Isolated Pan T cells were stimulated and expanded with Opto-antigen presenting beads conjugated with WDTC1 neoAg-peptide. Viable Pan-T cells were gated based on FSC and SSC scatter and SYTOX Blue dead cells staining after doublet-exclusion. Flow cytometric plots representing CD8 positive (x-axis) and PE-biotin-pMHC-pentamer positive (y-axis) cells; unstained, unstimulated, and WDTC1 Opto-antigen presenting beads stimulated cells (left to right). The percentage of live CD8+ cells and CD8/WDTC1 neoAg-loaded MHC pentamer positive cells are shown.
FIG. 19A-B. In vitro validation of the pooled predicted neoAgs immunogenicity using ELISpot IFNγ assay. A) Schematic of peptide pool, stimulation, and cell culture workflow for ELISpot assays. All 154 peptides were grouped into 15 peptide pools to stimulate PBMCs from 3 healthy human donors as shown in the illustrations. IFNy secreting cells were analyzed as spot-forming units (SFUs), indicative of immunogenicity. B) Quantification of IFNγ-secreting cells (SFU) obtained from ELISpot assay. Pools 2, 3, 5, 6, 9, and 12 produced at least 15 or higher SFU/10^5 cells from two different PBMCs. […] ConcA and DMSO served as positive and negative controls.
Healthy donor PBMCs were stimulated with 15 peptide pools (Supplementary Table 13) to expand the neoAg-specific CD8^+ T-cells followed by quantitative ELISpot assays (FIG. 19A) to measure immunogenicity. […] To ascertain the immunogenicity of individual peptides within each immunogenic pool. a deconvolution protocol (see Methods) was implemented (FIG. 10A). […] Three percent of MHC-I neoAgs not predicted to be highly immunogenic or recurrent (Others). 5% of the top 100 most immunogenic MHC-II predicted neoags, and 6% of the top 100 most recurrent MHC-II predicted neoags elicited an immunogenic response as assessed by ELISpot assays. Additionally. 18% of all of these elispot-reactive neoags were also predicted from the validation set (FIG. 9C). […]

[1] = IFNγ ELISpot, peptide-stimulated healthy donor PBMCs
[2] = IFNγ ELISpot, peptide-stimulated healthy donor PBMCs, peptides grouped in 15 pools
[3] = IFNγ ELISpot, peptides marked Tested
[4] = IFNγ ELISpot, healthy donor PBMCs stimulated with peptide pools
[5] = IFNγ ELISpot, only peptides marked Tested
[6] = IFNγ secretion in healthy donor PBMCs vs unexposed control cells
[7] = IFNγ ELISpot, healthy donor PBMCs

NMIQVLMSV [compound 49]
ELISPOT result for peptides marked Tested with ELISPOT (Yes/No) [1]: No

VMANVLTLNL
Elispot reactive [2]: yes

VLEDTLLKI
Elispot reactive [2]: yes

318 (LRGGVIQSTRRRRRA) [compound 318]
Elispot reactive [3]: No

TPMHSLLIS [compound 212]
Elispot reactive (IFNγ ELISpot, peptide tested): No

SLINLTWTA
Elispot reactive [2]: yes

SINVLCVRASLIEKL
Elispot reactive [4]: yes

KVPFFSALK [compound 169]
ELISPOT result (positive Yes/No) for peptides marked Tested [1]: No

IAFSQLIGM [compound 167]
ELISPOT result (positive Yes/No) for peptides marked Tested [1]: No

325 (ILVALSWMGGLHSFY) [compound 325]
Elispot reactive [3]: No

SPSRSTTAPV [compound 134]
ELISPOT result (positive Yes/No) for peptides marked Tested [1]: No

219 (IDNIKRNHNLALGRQ) [compound 219]
Elispot reactive [5]: No

220 (PKMQVTITLTSPIIR) [compound 220]
Elispot reactive [5]: No

TQLARFFPI [compound 24]
experimental validation of the neoAg, Yes/NA: Yes
Elispot reactive [5]: Yes
Elispot reactive [3]: Yes
Elispot reactive [6]: Yes

SLVRLSSCVPV [compound 4]
Elispot reactive (IFNγ ELISpot, peptide tested): No

APSLTPMHSL [compound 209]
Elispot reactive (IFNγ ELISpot, peptide tested): No

FLQEVFQA [compound 5]
ELISPOT result (positive Yes/No) for peptides marked Tested [1]: No

VSNIAQAPLY [compound 172]
ELISPOT result (positive Yes/No) for peptides marked Tested [1]: No

507 (VVHKKRGL) [compound 507]
Elispot reactive (IFNγ ELISpot, only peptides marked Elispot tested = Yes): No

RWMVLRNSWRAVARM
Elispot reactive [2]: yes

WLPKMPPFV
Elispot reactive [2]: yes

FLIDDNFKV [compound 10]
Elispot reactive (IFNγ ELISpot, peptide tested): Yes
Elispot reactive [6]: Yes

SPAIPPRPL [compound 7]
Elispot reactive (IFNγ ELISpot, peptide tested): No

RLSCAPPPI [compound 138]
ELISPOT result (positive Yes/No) for peptides marked Tested [1]: Yes
Elispot reactive [6]: Yes

VPACSHVPM [compound 202]
Elispot reactive (IFNγ ELISpot, peptide tested): No

LTHPAHQPL [compound 124]
Elispot reactive [3]: No

RIPAVLRTEGEPLHT [compound 323]
Elispot reactive [3]: Yes
Elispot reactive [6]: Yes

222 (KTGLQLLRNHIEELK) [compound 222]
Elispot reactive [5]: No

KTYMEMHY [compound 57]
ELISPOT result (positive Yes/No) for peptides marked Tested [1]: No
ELISPOT result for peptides marked Tested with ELISPOT (Yes/No) [1]: Yes
Elispot reactive [6]: Yes

MYFFWPCSL [compound 174]
ELISPOT result (positive Yes/No) for peptides marked Tested [1]: No

RPLCSSLGPL [compound 15]
Elispot reactive (IFNγ ELISpot, peptide tested): No

LEVMLLNMGYRITGL
Elispot reactive [4]: yes

AGIGWGASY
Elispot reactive [2]: yes

HSWRFCTHIR [compound 154]
ELISPOT result (positive Yes/No) for peptides marked Tested [1]: No

KPLWRKSPL [compound 137]
ELISPOT result (positive Yes/No) for peptides marked Tested [1]: No

TPQDSRQVL [compound 117]
Elispot reactive [3]: No

320 (EDMQEVVVHKKRGLF) [compound 320]
Elispot reactive [3]: No

FLAPCNFYL [compound 16]
Elispot reactive (IFNγ ELISpot, peptide tested): No

KRAFIHTPR [compound 131]
ELISPOT result (positive Yes/No) for peptides marked Tested [1]: No

KVDTHHLQV [compound 133]
ELISPOT result (positive Yes/No) for peptides marked Tested [1]: No

LSAPEKITLF [compound 20]
Elispot reactive [5]: Yes
ELISPOT result (positive Yes/No) for peptides marked Tested [1]: Yes
Elispot reactive [6]: Yes

RLDKGNFAGA [compound 215]
Elispot reactive (IFNγ ELISpot, peptide tested): No

336 (KEALFLQEVFQAERL) [compound 336]
Elispot reactive [3]: No

RTRSAWGDW [compound 141]
ELISPOT result (positive Yes/No) for peptides marked Tested [1]: No

321 (RFPLLMMWRTPMTTR) [compound 321]
Elispot reactive [3]: No

TPMHSLLISPM [compound 211]
Elispot reactive (IFNγ ELISpot, peptide tested): No

IQKSWTATTY
Elispot reactive [2]: yes

ATLVTPPTRY [compound 166]
ELISPOT result (positive Yes/No) for peptides marked Tested [1]: No

RTLLVTCILY [compound 125]
Elispot reactive [3]: No

RVPAHASTSL [compound 27]
Elispot reactive [5]: Yes
Elispot reactive [3]: Yes
Elispot reactive [6]: Yes

223 (QKKLMLLRLNLRKMC) [compound 223]
ELISpot result (positive response) for peptides tested with ELISpot [7]: No
Elispot reactive [5]: No

240 (SINVLCVRASLIEKL) [compound 240]
ELISpot result (positive response) for peptides tested with ELISpot [7]: No
Elispot reactive [5]: No

HTCKVCVSF [compound 176]
ELISPOT result (positive Yes/No) for peptides marked Tested [1]: No

LLNPVTMNKA [compound 206]
Elispot reactive (IFNγ ELISpot, peptide tested): No

LAYWEKREAW [compound 177]
ELISPOT result (positive Yes/No) for peptides marked Tested [1]: No

MLLELSPAQL [compound 216]
Elispot reactive (IFNγ ELISpot, peptide tested): No

236 (FEEIIKNDGALLKKK) [compound 236]
Elispot reactive [5]: No

WLPKMPPFV [compound 163]
ELISPOT result (positive Yes/No) for peptides marked Tested [1]: Yes
Elispot reactive [6]: Yes

KPIAGRHTL [compound 8]
Elispot reactive (IFNγ ELISpot, peptide tested): No

KLSSVVPSV [compound 22]
Elispot reactive [5]: No

RQMLPTLSTL [compound 214]
Elispot reactive (IFNγ ELISpot, peptide tested): No

FQVHFLKSGGLPLVL [compound 221]
Elispot reactive [5]: Yes
Elispot reactive [6]: Yes

FLMDGFDEL [compound 11]
Elispot reactive (IFNγ ELISpot, peptide tested): No

QTIEERLTW
Elispot reactive [2]: yes

RLYKYDHNFV [compound 213]
Elispot reactive (IFNγ ELISpot, peptide tested): No

229 (PALLLAEATHKASAL) [compound 229]
Elispot reactive [5]: No
Elispot reactive [3]: No

YLGTPTWNC [compound 151]
ELISPOT result (positive Yes/No) for peptides marked Tested [1]: Yes
Elispot reactive [6]: Yes

FMNSTVFHV [compound 3]
ELISPOT result for peptides marked Tested with ELISPOT (Yes/No) [1]: No

TAPVASASPKL [compound 17]
Elispot reactive (IFNγ ELISpot, peptide tested): No

HPPPPCLLLL [compound 217]
Elispot reactive (IFNγ ELISpot, peptide tested): No

RSVLEEMGL [compound 58]
ELISPOT result (positive Yes/No) for peptides marked Tested [1]: No
ELISPOT result for peptides marked Tested with ELISPOT (Yes/No) [1]: No

218 (RWMVLRNSWRAVARM) [compound 218]
Elispot reactive [5]: No

234 (QLARFFPITPPVWHI) [compound 234]
Elispot reactive [5]: No
Elispot reactive [3]: No

TSSPRTMSW [compound 120]
Elispot reactive [3]: No

KMMKILMIK [compound 19]
Elispot reactive [5]: No

290 (ANRYFSPNFKVKLYF) [compound 290]
ELISpot result (positive response) for peptides tested with ELISpot [7]: No

SPMITRIL [compound 210]
Elispot reactive (IFNγ ELISpot, peptide tested): No

332 (GVRILKLCSKVSFRV) [compound 332]
Elispot reactive [3]: No

RLDKGNFAGA
Elispot reactive [2]: yes

MLLRLNLRK [compound 29]
Elispot reactive [5]: Yes
ELISPOT result (positive Yes/No) for peptides marked Tested [1]: Yes
Elispot reactive [6]: Yes

RLYVPLYSSK [compound 37]
Elispot reactive [5]: Yes
ELISPOT result (positive Yes/No) for peptides marked Tested [1]: Yes
Elispot reactive [6]: Yes

FLIDDNFKV [SEQ ID NO 10]
ELISpot IFNγ reactivity (immunogenicity) of individual peptides (healthy donor PBMCs, compared to unexposed control cells, listed as TTLL10): most reactive (immunogenic); also recorded: immunogenic

SELLNPVTMNK [compound 205]
Elispot reactive (IFNγ ELISpot, peptide tested): No

RPVRGRGSL [compound 14]
Elispot reactive (IFNγ ELISpot, peptide tested): No

RAWRRFPLL [compound 118]
Elispot reactive [3]: No

TPRKLVGRAV [compound 162]
ELISPOT result (positive Yes/No) for peptides marked Tested [1]: No
